In patent publication US20200016136A1 (VIIV HEALTHCARE UK (NO. 5) LIMITED, priority 2017, published 2020) one finds EC50 data, which are given here for 21 molecules.

What is called EC50 is the concentration at which the effect is half-maximal.

Structures are written as SMILES.

The test system of the assay is NL-RLuc virus (recombinant NL4-3 HIV with Renilla Luciferase gene). The assay can be described thus: Inhibition of HIV replication (NL-RLuc virus in MT-2 cells, luciferase readout). The format is cell-based, Human immunodeficiency virus (HIV). The following applies: MT2, 120 h. Put shortly:
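EC50 derived via median effect equation from at least 2 experiments, using luciferase expression as virus-growth readout. Replication-competent NL-RLuc reporter virus (nef partly replaced by Renilla luciferase) infected MT-2 cells with serial compound dilutions; 5-day incubation in RPMI 1640 plus 10% FBS.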
`Cc1nc(C)c([C@H](OC(C)(C)C)C(=O)O)c(N2CCC(C)(C)CC2)c1-c1ccc2c(c1)CCN(c1nccc(-c3cnccn3)n1)C2` [Example 108, (S)-2-(tert-Butoxy)-2-(4-(4,4-dimethylpiperidin-1-yl)-2,6-dimethyl-5-(2-(4-(pyrazin-2-yl)pyrimidin-2-yl)-1,2,3,4-tetrahydroisoquinolin-6-yl)pyridin-3-yl)acetic Acid]: the EC50 came out at 2 nM.
Next, `Cc1cccc(Cl)c1CN1CCc2cc(-c3c(CF)nc(C)c([C@H](OC(C)(C)C)C(=O)O)c3N3CCC(C)(C)CC3)ccc2C1` [Example 158, (S)-2-(tert-Butoxy)-2-(5-(2-(2-chloro-6-methylbenzyl)-1,2,3,4-tetrahydroisoquinolin-6-yl)-4-(4,4-dimethylpiperidin-1-yl)-6-(fluoromethyl)-2-methylpyridin-3-yl)acetic Acid]: 5 nM; `CC1(C)CCN(Cc2nc(Cl)c([C@H](OC(C)(C)C)C(=O)O)c(N3CCC(C)(C)CC3)c2-c2ccc3c(c2)CCN(c2ncnc4c2oc2ccccc24)C3)CC1` [Example 96, (S)-2-(5-(2-(Benzofuro[3,2-d]pyrimidin-4-yl)-1,2,3,4-tetrahydroisoquinolin-6-yl)-2-chloro-4-(4,4-dimethylpiperidin-1-yl)-6-((4,4-dimethylpiperidin-1-yl)methyl)pyridin-3-yl)-2-(tert-butoxy)acetic Acid]: 0.3 nM; `Cc1nc(C)c([C@H](OC(C)(C)C)C(=O)O)c(N2CCC(C)(C)CC2)c1-c1ccc2c(c1)CCN(c1nccc(N3CCS(=O)(=O)CC3)n1)C2` [Example 46, (S)-2-(tert-Butoxy)-2-(4-(4,4-dimethylpiperidin-1-yl)-5-(2-(4-(1,1-dioxidothiomorpholino)pyrimidin-2-yl)-1,2,3,4-tetrahydroisoquinolin-6-yl)-2,6-dimethylpyridin-3-yl)acetic Acid]: 9 nM.
The same measure for `Cc1nc(C)c([C@H](OC(C)(C)C)C(=O)O)c(N2CCC(C)(C)CC2)c1-c1ccc2c(c1)CCN(c1cc(N3CCCCC3)ncn1)C2` [Example 124, (S)-2-(tert-Butoxy)-2-(4-(4,4-dimethylpiperidin-1-yl)-2,6-dimethyl-5-(2-(6-(piperidin-1-yl)pyrimidin-4-yl)-1,2,3,4-tetrahydroisoquinolin-6-yl)pyridin-3-yl)acetic Acid]: 17 nM; for `Cc1cccc(Cl)c1CN1CCc2cc(-c3c(O)nc(C)c([C@H](OC(C)(C)C)C(=O)O)c3N3CCC(C)(C)CC3)ccc2C1` [Example 1, (S)-2-(tert-Butoxy)-2-(5-(2-(2-chloro-6-methylbenzyl)-1,2,3,4-tetrahydroisoquinolin-6-yl)-4-(4,4-dimethylpiperidin-1-yl)-2-methyl-6-oxo-1,6-dihydropyridin-3-yl)acetic Acid]: 10 nM.
Next, `Cc1nc(C)c([C@H](OC(C)(C)C)C(=O)O)c(N2CCC(C)(C)CC2)c1-c1ccc2c(c1)CCN(c1nccc(N3CCC(C)(C)CC3)n1)C2` [Example 24, (2S)-2-(tert-Butoxy)-2-[4-(4,4-dimethylpiperidin-1-yl)-5-{2-[4-(4,4-dimethylpiperidin-1-yl)pyrimidin-2-yl}-1,2,3,4-tetrahydroisoquinolin-6-yl}-2,6-dimethylpyridin-3-yl]acetic Acid]: 8 nM; `Cc1nc(C)c([C@H](OC(C)(C)C)C(=O)O)c(N2CCC(C)(C)CC2)c1-c1ccc2c(c1)CCN(c1nccc(N3CCN4CCC3CC4)n1)C2` [Example 44, (2S)-2-(tert-Butoxy)-2-{5-[2-(4-{1,4-diazabicyclo[3.2.2]nonan-4-yl}pyrimidin-2-yl)-1,2,3,4-tetrahydroisoquinolin-6-yl]-4-(4,4-dimethylpiperidin-1-yl)-2,6-dimethylpyridin-3-yl}acetic Acid]: 27 nM.
For `Cc1nc(C)c([C@H](OC(C)(C)C)C(=O)O)c(N2CCC(C)(C)CC2)c1-c1ccc2c(c1)CCN(c1ccnc(N3CCCC3)n1)C2` [Example 20, (2S)-2-(tert-Butoxy)-2-[4-(4,4-dimethylpiperidin-1-yl)-2,6-dimethyl-5-{2-[2-(pyrrolidin-1-yl)pyrimidin-4-yl]-1,2,3,4-tetrahydroisoquinolin-6-yl}pyridin-3-yl]acetic Acid], the EC50 was determined as 2 nM.
The same measure for `Cc1nc(C)c([C@H](OC(C)(C)C)C(=O)O)c(N2CCC(C)(C)CC2)c1-c1ccc2c(c1)CCN(c1ccnc(N3CCN(CCO)CC3)n1)C2` [Example 85, (S)-2-(tert-Butoxy)-2-(4-(4,4-dimethylpiperidin-1-yl)-5-(2-(2-(4-(2-hydroxyethyl)piperazin-1-yl)pyrimidin-4-yl)-1,2,3,4-tetrahydroisoquinolin-6-yl)-2,6-dimethylpyridin-3-yl)acetic Acid]: 39 nM; for `Cc1cccc(N2CCc3cc(-c4c(C)nc(C)c([C@H](OC(C)(C)C)C(=O)O)c4N4CCC(C)(C)CC4)ccc3C2)n1` [Example 89, (S)-2-(tert-Butoxy)-2-(4-(4,4-dimethylpiperidin-1-yl)-2,6-dimethyl-5-(2-(6-methylpyridin-2-yl)-1,2,3,4-tetrahydroisoquinolin-6-yl)pyridin-3-yl)acetic Acid]: 3 nM; for `Cc1cccc(Cl)c1CN1CCc2cc(-c3c(C(=O)O)nc(C)c([C@H](OC(C)(C)C)C(=O)O)c3N3CCC(C)(C)CC3)ccc2C1` [Example 116, (S)-5-(tert-Butoxy(carboxy)methyl)-3-(2-(2-chloro-6-methylbenzyl)-1,2,3,4-tetrahydroisoquinolin-6-yl)-4-(4,4-dimethylpiperidin-1-yl)-6-methylpicolinic Acid]: 4 nM.
The same measure for `Cc1nc(C)c([C@H](OC(C)(C)C)C(=O)O)c(N2CCC(C)(C)CC2)c1-c1ccc2c(c1)CCN(c1cc(N3CCC(N4CCN(C)CC4)CC3)ncn1)C2` [Example 136, (S)-2-(tert-Butoxy)-2-(4-(4,4-dimethylpiperidin-1-yl)-2,6-dimethyl-5-(2-(6-(4-(4-methylpiperazin-1-yl)piperidin-1-yl)pyrimidin-4-yl)-1,2,3,4-tetrahydroisoquinolin-6-yl)pyridin-3-yl)acetic Acid]: 16 nM; for `Cc1nc(C)c([C@H](OC(C)(C)C)C(=O)O)c(N2CCC(C)(C)CC2)c1-c1ccc2c(c1)CCN(c1nccc(N3CCCC3)n1)C2` [Example 21, (2S)-2-(tert-Butoxy)-2-[4-(4,4-dimethylpiperidin-1-yl)-2,6-dimethyl-5-{2-[4-(pyrrolidin-1-yl)pyrimidin-2-yl]-1,2,3,4-tetrahydroisoquinolin-6-yl}pyridin-3-yl]acetic Acid]: 2 nM; for `Cc1nc(C)c([C@H](OC(C)(C)C)C(=O)O)c(N2CCC(C)(C)CC2)c1-c1ccc2c(c1)CCN(c1nccc(N(C)C)n1)C2` [Example 17, (2S)-2-(tert-Butoxy)-2-(5-{2-[4-(dimethylamino)pyrimidin-2-yl]-1,2,3,4-tetrahydroisoquinolin-6-yl}-4-(4,4-dimethylpiperidin-1-yl)-2,6-dimethylpyridin-3-yl)acetic Acid]: 1 nM.
On to `Cc1nc(CN2CCC3(CCC3)CC2)c(-c2ccc3c(c2)CCN(c2nccc(-c4cnccn4)n2)C3)c(N2CCC(C)(C)CC2)c1[C@H](OC(C)(C)C)C(=O)O` [Example 166, (S)-2-(6-(7-Azaspiro[3.5]nonan-7-ylmethyl)-4-(4,4-dimethylpiperidin-1-yl)-2-methyl-5-(2-(4-(pyrazin-2-yl)pyrimidin-2-yl)-1,2,3,4-tetrahydroisoquinolin-6-yl)pyridin-3-yl)-2-(tert-butoxy)acetic Acid], for which the 50% effective concentration (EC50) amounted to 0.6 nM.
The same measure for `Cc1nc(-c2cnn(C)c2C)c(-c2ccc3c(c2)CCN(c2ncnc4c2oc2ccccc24)C3)c(N2CCC(C)(C)CC2)c1[C@H](OC(C)(C)C)C(=O)O` [Example 13, (S)-2-(5-(2-(Benzofuro[3,2-d]pyrimidin-4-yl)-1,2,3,4-tetrahydroisoquinolin-6-yl)-6-(1,5-dimethyl-1H-pyrazol-4-yl)-4-(4,4-dimethylpiperidin-1-yl)-2-methylpyridin-3-yl)-2-(tert-butoxy)acetic Acid]: 2 nM.
The same measure for `Cc1nc(C)c([C@H](OC(C)(C)C)C(=O)O)c(N2CCC(C)(C)CC2)c1-c1ccc2c(c1)CCN(c1cncc(N3CCOCC3)n1)C2` [Example 74, (S)-2-(tert-Butoxy)-2-(4-(4,4-dimethylpiperidin-1-yl)-2,6-dimethyl-5-(2-(6-morpholinopyrazin-2-yl)-1,2,3,4-tetrahydroisoquinolin-6-yl)pyridin-3-yl)acetic Acid]: 1 nM.
Regarding `Cc1nc(C)c([C@H](OC(C)(C)C)C(=O)O)c(N2CCC(C)(C)CC2)c1-c1ccc2c(c1)CCN(c1nccc(N3C4CCCC3COC4)n1)C2` [Example 35, (2S)-2-(tert-Butoxy)-2-[4-(4,4-dimethylpiperidin-1-yl)-2,6-dimethyl-5-[2-(4-{3-oxa-9-azabicyclo[3.3.1]nonan-9-yl}pyrimidin-2-yl)-1,2,3,4-tetrahydroisoquinolin-6-yl]pyridin-3-yl]acetic Acid], the EC50 came out at 3 nM.
The same measure for `Cc1nc(C)c([C@H](OC(C)(C)C)C(=O)O)c(N2CCC(C)(C)CC2)c1-c1ccc2c(c1)CCN(c1ccnc(N3C[C@@H](C)O[C@@H](C)C3)n1)C2` [Example 27, (2S)-2-(tert-Butoxy)-2-[5-(2-{2-[(2R,6S)-2,6-dimethylmorpholin-4-yl]pyrimidin-4-yl}-1,2,3,4-tetrahydroisoquinolin-6-yl)-4-(4,4-dimethylpiperidin-1-yl)-2,6-dimethylpyridin-3-yl]acetic Acid]: 2 nM; for `Cc1nc(C)c([C@H](OC(C)(C)C)C(=O)O)c(N2CCC(C)(C)CC2)c1-c1ccc2c(c1)CCN(c1nccc(N3CC4CCC(C3)O4)n1)C2` [Example 30, (2S)-2-(tert-Butoxy)-2-[4-(4,4-dimethylpiperidin-1-yl)-2,6-dimethyl-5-[2-(4-{8-oxa-3-azabicyclo[3.2.1]octan-3-yl}pyrimidin-2-yl)-1,2,3,4-tetrahydroisoquinolin-6-yl]pyridin-3-yl]acetic Acid]: 1 nM.
